According to the NIST ThermoML archive (doi:10.1016/j.jct.2013.02.001):

Conditions: Quantum Design PPMS relaxation calorimeter; for molar entropy: 101.33 kPa

O=P([O-])([O-])OP(=O)([O-])[O-].[Fe+2].[Fe+2] [iron(II) pyrophosphate]
Conditions	molar entropy [J/K/mol]
1 K, Crystal 2	0.08421
2 K, Crystal 2	0.1749
3 K, Crystal 2	0.2781
4 K, Crystal 2	0.4026
5 K, Crystal 2	0.5598
6 K, Crystal 2	0.7639
7 K, Crystal 2	1.033
8 K, Crystal 2	1.379
9 K, Crystal 2	1.814
10 K, Crystal 2	2.349
11 K, Crystal 2	2.988
12 K, Crystal 2	3.726
13 K, Crystal 2	4.55
14 K, Crystal 2	5.45
15 K, Crystal 2	6.422
16 K, Crystal 2	7.473
17 K, Crystal 2	8.609
18 K, Crystal 2	9.826
19 K, Crystal 1	11.08
20 K, Crystal 1	12.28
25 K, Crystal 1	16.82
30 K, Crystal 1	20.58
35 K, Crystal 1	24
40 K, Crystal 1	27.36
45 K, Crystal 1	30.72
50 K, Crystal 1	34.14
55 K, Crystal 1	37.63
60 K, Crystal 1	41.21
65 K, Crystal 1	44.87
70 K, Crystal 1	48.62
75 K, Crystal 1	52.44
80 K, Crystal 1	56.32
85 K, Crystal 1	60.25
90 K, Crystal 1	64.23
95 K, Crystal 1	68.25
100 K, Crystal 1	72.3
110 K, Crystal 1	80.43
120 K, Crystal 1	88.54
130 K, Crystal 1	96.61
140 K, Crystal 1	104.61
150 K, Crystal 1	112.55
160 K, Crystal 1	120.42
170 K, Crystal 1	128.21
180 K, Crystal 1	135.93
190 K, Crystal 1	143.57
200 K, Crystal 1	151.13
210 K, Crystal 1	158.6
220 K, Crystal 1	165.99
230 K, Crystal 1	173.3
240 K, Crystal 1	180.51
250 K, Crystal 1	187.62
260 K, Crystal 1	194.64
270 K, Crystal 1	201.56
273.15 K, Crystal 1	203.72
280 K, Crystal 1	208.38
290 K, Crystal 1	215.1
298.15 K, Crystal 1	220.5
300 K, Crystal 1	221.72

Conditions	Triple point temperature [K]
Crystal 2	18.96
